Values quoted from earlier work, collected in patent publication US20070269386A1, “New product and use and manufacture thereof” (priority 2006, published 2007).

System: adult

**Q.** With `CN1CCCC1c1cccnc1` (stereo not shown) [nicotine, 3-(1-methyl-2-pyrrolidinyl)-pyridine] as the molecule, how does the “single dose that may kill an adult” value read?
**A.** Its value is “Approximately 40 milligrams”.
